What was measured:
[1] = test system: COS-7 cells; assay: Autocrine assay: growth of cells cultured with NMU-25 (MTT, colony formation); format: cell-based; conditions: 0.3 to 15 μM, vs BSA control, 144 hours
Experimental: To confirm the autocrine function of NMU in the growth of mammalian cells, COS-7 cells were cultured in medium containing the active form of a 25-amino-acid polypeptide of NMU (NMU-25; Sigma-Aldrich Co.) at final concentrations of 0.3 to 15 μM. The same concentrations of BSA served as controls. The peptides/proteins were added every 48 hours for 6 days. At the 144-hours time point, cell proliferation was evaluated by MTT and colony-formation assays.

[2] = target: T1, endogenous GHSR1b and NTSR1 on LC319 cells (Homo sapiens, UniProt P30989+Q92847); assay: Ligand-receptor binding assay with Cy5-labeled NMU-25; conditions: 10-fold excess unlabeled NMU-25
T1 construct: endogenous in cells; host or cells: LC319
T1 sequence (Q92847 1-289 isoform Q92847-2): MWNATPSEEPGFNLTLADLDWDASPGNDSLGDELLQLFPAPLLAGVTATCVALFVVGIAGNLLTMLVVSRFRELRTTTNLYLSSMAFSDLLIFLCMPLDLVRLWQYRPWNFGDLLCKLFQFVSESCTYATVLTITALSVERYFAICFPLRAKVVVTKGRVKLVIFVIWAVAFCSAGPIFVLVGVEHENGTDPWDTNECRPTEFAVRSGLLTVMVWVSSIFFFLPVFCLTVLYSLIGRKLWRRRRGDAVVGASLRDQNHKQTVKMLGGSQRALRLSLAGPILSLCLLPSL
T1 sequence (P30989 whole entry): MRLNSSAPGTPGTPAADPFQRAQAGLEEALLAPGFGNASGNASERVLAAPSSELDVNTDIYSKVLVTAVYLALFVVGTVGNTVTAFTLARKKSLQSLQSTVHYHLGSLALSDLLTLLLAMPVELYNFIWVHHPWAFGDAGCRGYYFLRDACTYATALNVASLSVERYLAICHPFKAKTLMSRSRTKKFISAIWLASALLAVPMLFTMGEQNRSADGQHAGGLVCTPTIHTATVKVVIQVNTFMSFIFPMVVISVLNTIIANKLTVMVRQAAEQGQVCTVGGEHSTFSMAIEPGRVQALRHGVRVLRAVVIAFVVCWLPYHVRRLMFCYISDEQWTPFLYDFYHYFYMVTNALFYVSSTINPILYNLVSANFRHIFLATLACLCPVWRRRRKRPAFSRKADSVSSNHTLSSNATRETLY
Experimental: (§1) To confirm the binding of NMU-25 to endogenous candidate receptors on the NSCLC cell, a receptor-ligand binding assay using LC319 and PC14 cells that express GHSR1b and NTSR1, but not NMU1R and NMU2R were performed. Specifically, trypsinized cells were seeded onto a 96-well (with black wall and clear bottom) microtiter plates 24 hours prior to the assay. The medium was removed and the cells were incubated with CyS-labeled NMU-25 peptide (1 μM) with or without the addition of 10-fold excess unlabeled NMU-25 peptide as the competitor. The plate was incubated in dark for 24 hours at 37° C. and then scanned on 8200 Cellular Detection System (Applied Biosystems) to quantify the amount of CyS fluorescence probe bound to the surface of each cell. (15) Immunocytochemistry for Internalized Receptors

[3] = target: T2, endogenous GHSR1b and NTSR1 on PC14 cells (Homo sapiens, UniProt P30989+Q92847); assay: as above; conditions: 10-fold excess unlabeled NMU-25
T2 construct: endogenous in cells; host or cells: PC14
T2 sequence (Q92847 1-289 isoform Q92847-2): as the sequence (Q92847 1-289 isoform Q92847-2) above
T2 sequence (P30989 whole entry): as the sequence (P30989 whole entry) above
Experimental: as §1

[4] = test system: LC319 cells; assay: Measurement of cAMP levels (cAMP EIA); format: cell-based, human; conditions: for cAMP production: final concentrations of 3 to 100 μM
Experimental: (§2) Trypsinized LC319, REF-LC-AI, NCI-H358 and SK-MED-1 cells were seeded onto a 96-well microtiter plate (5.0×10^4 cells) and cultured in appropriate medium supplemented with 10% FCS for 24 hours, and then the medium was changed to serum free/1 mM IBMX (isobutylmethylxanthine) 20 min prior to the assay. Next, the cells were incubated with individual concentrations of peptides (NMU-25, GHRL, or NTS) for 20 min and cAMP levels of the cells were measured using cAMP EIA System (GE Healthcare Bio-sciences).

[5] = test system: NCI-H358 cells; assay: Measurement of cAMP levels (cAMP EIA); format: cell-based, human; conditions: expressing either of the receptors, 3 to 50 μM
Experimental: as §2

[6] = test system: RERF-LC-AI cells; assay: Measurement of cAMP levels (cAMP EIA); format: cell-based, human; conditions: both receptors at low levels, 3 to 50 μM
Experimental: as §2

[7] = test system: SK-MES-1 cells; assay: Measurement of cAMP levels (cAMP EIA); format: cell-based, human; conditions: expressing either of the receptors, 3 to 50 μM
Experimental: as §2

[8] = target: T3, GHSR1b/NTSR1 (Homo sapiens, UniProt P30989+Q92847, A200T); assay: Immunocytochemistry for internalized receptors, transfected COS-7 cells; format: cell-based; conditions: COS-7 cells with introduced receptors, 10 μM, time-dependent
T3 construct: expressed in transfected cells; host or cells: COS-7
T3 sequence (Q92847 1-289 isoform Q92847-2, stated change not applied): as the sequence (Q92847 1-289 isoform Q92847-2) above
T3 sequence (P30989 whole entry A200T): as the sequence (P30989 whole entry) above, with A200T counted along it
Experimental: To investigate the association of NMU-25 with its candidate receptors, GHSR1b and NTSR1, the following experiments were performed. The entire coding region of each of the receptor genes was amplified by RT-PCR using primers: […]
The products were digested with EcoRI and BamHI and cloned into appropriate sites of p3XFLAG-CMV10 vector (Sigma-Aldrich Co.). COS-7 cells were transfected with FLAG-tagged GHSR1b or NTSR1 expression plasmid using FuGENE 6 Transfection Reagent as described above. The cells subjected to internalization assays were exposed to NMU-25 (10 μM) for 120 min. The cells were then fixed with 4% paraformaldehyde solution for 15 min at 37° C., and washed with PBS(−). Specimens were incubated in PBS(−) containing 0.1% Triton X-100 for 10 min and subsequently washed with PBS(−). Prior to primary antibody reaction, the cells were incubated in CAS-BLOCK (ZYMED Laboratories Inc.) for 10 min to block non-specific antibody binding. Then, the cells were incubated with both rabbit polyclonal and anti-GHSR antibody and goat polyclonal anti-NTSR1 antibody. The antibodies were stained with both anti-rabbit secondary antibody conjugated to Alexa Fluor 488 (Molecular Probes) and anti-goat secondary antibody conjugated to Alexa Fluor 594 (Molecular Probes). […] Images were viewed and assessed using confocal microscopy (TCS SP2 AOBS; Leica Microsystems).

[9] = target: T4, GHSR1b/NTSR1 (Homo sapiens, UniProt P30989+Q92847); assay: Immunocytochemistry for internalized receptors, endogenous receptors in LC319 cells; format: cell-based
T4 construct: endogenous in cells; host or cells: LC319
T4 sequence (Q92847 1-289 isoform Q92847-2): as the sequence (Q92847 1-289 isoform Q92847-2) above
T4 sequence (P30989 whole entry): as the sequence (P30989 whole entry) above

[10] = test system: FOXM1; assay: Induction of FOXM1 expression by NMU ligand-receptor signaling in LC319 cells; format: cell-based, human; conditions: 25 μM, vs BSA control
Experimental: Total RNA was extracted from cultured cells and clinical tissues using Trizol reagent (Life Technologies, Inc.) according to the manufacturer's protocol. Extracted RNAs and normal human tissue poly(A) RNAs were treated with DNaseI (Nippon Gene) and were reverse-transcribed using oligo(dT)20 primer and SuperSpcript II reverse transcriptase (Invitrogen). Semiquantitative RT-PCR experiments were carried out with the following synthesized gene-specific primers and beta-actin (ACTB)-specific primers as internal control: […]

[11] = test system: LC319 cells; assay: Intracellular Ca^2+ mobilization assay (FLIPR); format: cell-based, human
Experimental: Trypsinized LC319 cells were seeded onto poly-D-lysine coated 384-well black-wall, clear-bottom microtiter plate (1.0×10^4 cells/ml) 24 hours prior to the assay. The cells were loaded for 1 hour with 4 μM Fluo-3-AM fluorescent indicator dye in assay buffer (Hank's balanced salt solution, 20 mM HEPES, 2.5 mM probenecid), washed three times with assay buffer, and then incubated for 10 min at room temperature before detection on fluorometric imaging plate reader (FLIPR; Molecular Devices). Fluorescence data of Ca^2+ release were collected in real-time at 1 sec intervals for the first 65 sec and at 3 sec intervals for additional 300 sec after individual concentrations of peptide (NMU-25, […], or NTS) treatment. Maximum change in fluorescence over baseline was measured to determine the response of the cells to the individual peptide stimulations.

[12] = test system: NSCLC cells; assay: Competition of NMU-induced cAMP production; format: cell-based
[13] = target: T5, NMU1R-expressing cells (Homo sapiens, UniProt Q9HB89); conditions: cited from earlier work
T5 construct: host or cells: NMU1R-expressing cells
T5 sequence (Q9HB89 1-426): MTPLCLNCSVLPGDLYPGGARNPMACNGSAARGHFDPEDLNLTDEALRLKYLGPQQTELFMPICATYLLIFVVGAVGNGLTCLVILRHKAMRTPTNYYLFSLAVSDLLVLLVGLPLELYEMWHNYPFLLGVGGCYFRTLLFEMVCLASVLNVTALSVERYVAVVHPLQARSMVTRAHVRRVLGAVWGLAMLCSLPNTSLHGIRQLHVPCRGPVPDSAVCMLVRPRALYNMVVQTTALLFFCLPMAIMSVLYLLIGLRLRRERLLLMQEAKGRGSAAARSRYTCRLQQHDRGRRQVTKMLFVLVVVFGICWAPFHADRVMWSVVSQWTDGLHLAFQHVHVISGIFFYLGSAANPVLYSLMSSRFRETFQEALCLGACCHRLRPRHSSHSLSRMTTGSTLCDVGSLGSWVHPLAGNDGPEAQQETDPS

Row | Substance | cell growth (MTT assay) [1] | cell growth (colony-formation assay) [1] | binding activity of Cy5-labeled NMU-25 with unlabeled competitor [2] | binding activity of Cy5-labeled NMU-25 with unlabeled competitor [3] | cAMP production [4] | intracellular cAMP production by NMU-25 (FIG. 3A) ([4]; high levels of both receptors, 3 to 50 μM) | intracellular cAMP production by NMU-25 (FIG. 3C) [5] | intracellular cAMP production by NMU-25 (FIG. 3B) [6] | intracellular cAMP production by NMU-25 (FIG. 3D) [7] | subcellular distribution of GHSR1b and NTSR1 after stimulation [8] | subcellular distribution of GHSR1b and NTSR1 after stimulation [9] | expression of FOXM1 [10] | intracellular Ca^2+ flux / mobilization [11] | NMU-induced cAMP production [12] | displacement of 125I-labeled rat NMU-binding [13]
1 | NMU-25: active form of a 25-amino-acid polypeptide of NMU (Sigma-Aldrich Co.) (FRVDEEFQSPFASQSRGYFLFRPRN) | enhanced cell growth in a dose-dependent manner | enhanced cell growth in a dose-dependent manner | inhibited | inhibited | Enhancement of cAMP production | marked and reproducible cAMP accumulation | did not show detectable cAMP production | not significant but low cAMP production | did not show detectable cAMP production | co-internalized | induced co-internalization | enhanced expression of FOXM1 | – | – | –
2 | ghrelin (GSSFLSPEHQRVQQRKESKKPPAKLQPR) [GHRL, 28-amino-acid peptide, known ligand of GHSR] | – | – | – | – | did not enhance | – | – | – | – | – | – | – | not the treatment with GHRL caused the mobilization response | competitively inhibited | did not displace
